Reference: paper PMC7712428, “Dimethoate Induces DNA Damage and Mitochondrial Dysfunction Triggering Apoptosis in Rat Bone-Marrow and Peripheral Blood Cells” (Toxics, 2020)
Several values for one entry are separate records, joined by “and”; a condition that tells them apart may be missing. Equal entries are not always repeated. Where two headings read alike, the source gives them in different places.

How the values were obtained:
bone marrow cells = settings: for Total Aberrations (Mean ± SD): mean percentage; for MI (Mean ± SD): mitotic index mean percentage; for Structural Aberrations Assoc: number of associations; for Structural Aberrations Brk: number of breaks; for Structural Aberrations Del: number of deletions; for Structural Aberrations Dcn: number of dicentrics; for Structural Aberrations Frag: number of fragments; for Structural Aberrations Gp: number of gaps; for Structural Aberrations Ring: number of rings
Description: (§1) The experimental animals—Rattus norvegicus (Wistar strain; 8–10 weeks old; 120 ± 20 gm; males only) were acquired from Indian Institute of Integrative Medicine (IIIM-CSIR) (Jammu, India), quarantined, acclimatized and sacrificed as per standard practice conforming to the University Ethical Regulations. After acclimatization, rats were divided into five groups by stratified randomization with five animals per group. […] Distilled water was used to prepare dosing solutions of test agent and injected via intraperitoneal (i.p.) injection. At 24, 48 and 72 h post-dosing, 5 rats per duration were sacrificed and necessary tissues were isolated for different cytogenetic and molecular parameters. For CA assessment, separate experimental lot was used due to colchicine treatment.
Method of Preston et al. was used for preparing the metaphase chromosomes. An aqueous solution of Colchicine (4 mg/kgbw) was injected intraperitoneally 2 h prior to sacrificing the animal. Pre-warm KCL (0.075 M) solution was used to collect the bone marrow cells followed by incubation at 37 °C for 20 min, and then centrifuge at 1000 rpm for 10 min. After fixing the pellet in cold Cornoy’s fixative dropped onto clean pre-chilled glass slide in 30% ethanol and dried in air. 5% buffered Giemsa (pH 7.0) was used for staining. Chromosomal aberrations were analyzed on properly separated metaphases and finally photographed at 100× (Olympus U—PMTV microscope), using oil immersion. The metaphase cells from approximately 1000 cells per concentration per animal both in exposed and control replicates, expressed in percentage were considered for mitotic indices (MI).

Eosinophils = test system: Eosinophils
Description: as §1
(§2) WBCs were isolated by following the protocol of Lone et al.. Blood was collected in 0.1% EDTA from retro-orbital plexus of rat, followed by incubation for 30 min. 500 µL of blood was then added to a centrifuge tube with 1 mL FACS lysing solution. The blood was incubated for 10 min and centrifuged (2000 rpm, 10 min) at 25 °C. After discarding the supernatant, pellet was washed in 1mL FACS lysing solution followed by centrifuging at 2000 rpm for 5 min. Repeated this step twice and then pellet was put in 500 µL of PBS, leaving only WBCs.
(§3) Protocol of Majeed and colleagues was employed for flow cytometric measurements of change in Ψm. […] Leukocytes were identified via forward and side scatter.

Neutrophils = test system: Neutrophils
Description: as §1, §2, §3

Platelets = settings: 72 h treatment
peripheral blood cells = settings: for Olive Tail Moment / Tail Length (µm): Mean ± SD
Description: as §1
Detection of DNA strand break was performed according to protocol of Singh et al. with some modifications. Briefly, blood was collected using Retro-orbital bleeding during euthanasia. 10μL whole blood cells obtained were mixed with 75 µL of 0.5% LMPA and layered onto frosted slides which was pre-coated with NMA. After putting cover slip, slides were kept for 5–10min. After gelling, removed cover slip gently and added a layer of 90 μL of LMPA. After replacing the cover slip, slides were placed on the slide tray (ice packs) till the agarose layer hardened (5–10 min). Following this, removed the cover slip and by gently immersing the slides in lysis buffer embedded cells were lysed. Cells lysis was performed in cold conditions for a minimum of 2 h in lysing solution.
Alkaline conditions (pH > 13) were used to perform the electrophoresis. After lysis, slides were subjected in electrophoretic buffer at 4 °C for 40 min to achieve the DNA denaturation that allow the DNA unwinding and the expression of alkali labile site. Electrophoresis was then carried out at 0.74 V/cm for 40 min (300 mA; 24 volts) at 4 °C by raising or lowering buffer. Thereafter, neutralization buffer (0.4 M Tris, 10 M HCl; pH = 7.5) were employed to wash the slides. Slides were stained by 80 μL of 1× Ethidium Bromide and excess stain was removed by dipping in chilled distilled water. Slides were examined at 40× magnification under fluorescence microscope coupled with a charge coupled device camera (Olympus).

Structure (SMILES): CNC(=O)CSP(=S)(OC)OC [DM, 0,0- Dimethyl S-(N-methylcarbamoylmethyl) phosphorodithiote]
- Total Aberrations (Mean ± SD) (bone marrow cells; 20 mg/kgbw, 24 h): 5.66 ± 1.03 **^,a %
- Total Aberrations (Mean ± SD) (bone marrow cells; 20 mg/kgbw, 48 h): 5.33 ± 1.43 **^,a %
- Total Aberrations (Mean ± SD) (bone marrow cells; 20 mg/kgbw, 72 h): 2.17 ± 0.83 *^,a %
- Total Aberrations (Mean ± SD) (bone marrow cells; 40 mg/kgbw, 24 h): 5.83 ± 1.69 **^,a %
- Total Aberrations (Mean ± SD) (bone marrow cells; 40 mg/kgbw, 48 h): 5.16 ± 1.74 **^,a %
- Total Aberrations (Mean ± SD) (bone marrow cells; 40 mg/kgbw, 72 h): 2.67 ± 0.75 *^,a %
- Total Aberrations (Mean ± SD) (bone marrow cells; 60 mg/kgbw, 24 h): 7.50 ± 1.15% and 7.50 ± 1.15 **^,a,*^,b %
- Total Aberrations (Mean ± SD) (bone marrow cells; 60 mg/kgbw, 48 h): 6.83 ± 1.90 **^,a %
- Total Aberrations (Mean ± SD) (bone marrow cells; 60 mg/kgbw, 72 h): 3.16 ± 0.71 *^,a %
- MI (Mean ± SD) (bone marrow cells; 20 mg/kgbw, 24 h): 2.19 ± 0.21 *^,a %
- MI (Mean ± SD) (bone marrow cells; 20 mg/kgbw, 48 h): 2.04 ± 0.15 *^,a %
- MI (Mean ± SD) (bone marrow cells; 20 mg/kgbw, 72 h): 2.07 ± 0.10 *^,a %
- MI (Mean ± SD) (bone marrow cells; 40 mg/kgbw, 24 h): 2.16 ± 0.16 *^,a %
- MI (Mean ± SD) (bone marrow cells; 40 mg/kgbw, 48 h): 1.98 ± 0.08 *^,a %
- MI (Mean ± SD) (bone marrow cells; 40 mg/kgbw, 72 h): 2.05 ± 0.14 *^,a %
- MI (Mean ± SD) (bone marrow cells; 60 mg/kgbw, 24 h): 1.92 ± 0.61 *^,a %
- MI (Mean ± SD) (bone marrow cells; 60 mg/kgbw, 48 h): 1.97 ± 0.12 *^,a %
- MI (Mean ± SD) (bone marrow cells; 60 mg/kgbw, 72 h): 1.95 ± 0.04 *^,a %
- Structural Aberrations Assoc (bone marrow cells; 20 mg/kgbw, 24 h): 4
- Structural Aberrations Assoc (bone marrow cells; 20 mg/kgbw, 48 h): 5
- Structural Aberrations Assoc (bone marrow cells; 20 mg/kgbw, 72 h): 0
- Structural Aberrations Assoc (bone marrow cells; 40 mg/kgbw, 24 h): 6
- Structural Aberrations Assoc (bone marrow cells; 40 mg/kgbw, 48 h): 6
- Structural Aberrations Assoc (bone marrow cells; 40 mg/kgbw, 72 h): 1
- Structural Aberrations Assoc (bone marrow cells; 60 mg/kgbw, 24 h): 4
- Structural Aberrations Assoc (bone marrow cells; 60 mg/kgbw, 48 h): 7
- Structural Aberrations Assoc (bone marrow cells; 60 mg/kgbw, 72 h): 1
- Structural Aberrations Brk (bone marrow cells; 20 mg/kgbw, 24 h): 2
- Structural Aberrations Brk (bone marrow cells; 20 mg/kgbw, 48 h): 9
- Structural Aberrations Brk (bone marrow cells; 20 mg/kgbw, 72 h): 2
- Structural Aberrations Brk (bone marrow cells; 40 mg/kgbw, 24 h): 4
- Structural Aberrations Brk (bone marrow cells; 40 mg/kgbw, 48 h): 3
- Structural Aberrations Brk (bone marrow cells; 40 mg/kgbw, 72 h): 5
- Structural Aberrations Brk (bone marrow cells; 60 mg/kgbw, 24 h): 6
- Structural Aberrations Brk (bone marrow cells; 60 mg/kgbw, 48 h): 7
- Structural Aberrations Brk (bone marrow cells; 60 mg/kgbw, 72 h): 8
- Structural Aberrations Del (bone marrow cells; 20 mg/kgbw, 24 h): 4
- Structural Aberrations Del (bone marrow cells; 20 mg/kgbw, 48 h): 5
- Structural Aberrations Del (bone marrow cells; 20 mg/kgbw, 72 h): 4
- Structural Aberrations Del (bone marrow cells; 40 mg/kgbw, 24 h): 4
- Structural Aberrations Del (bone marrow cells; 40 mg/kgbw, 48 h): 4
- Structural Aberrations Del (bone marrow cells; 40 mg/kgbw, 72 h): 2
- Structural Aberrations Del (bone marrow cells; 60 mg/kgbw, 24 h): 6
- Structural Aberrations Del (bone marrow cells; 60 mg/kgbw, 48 h): 5
- Structural Aberrations Del (bone marrow cells; 60 mg/kgbw, 72 h): 3
- Structural Aberrations Dcn (bone marrow cells; 20 mg/kgbw, 24 h): 8
- Structural Aberrations Dcn (bone marrow cells; 20 mg/kgbw, 48 h): 3
- Structural Aberrations Dcn (bone marrow cells; 20 mg/kgbw, 72 h): 2
- Structural Aberrations Dcn (bone marrow cells; 40 mg/kgbw, 24 h): 12
- Structural Aberrations Dcn (bone marrow cells; 40 mg/kgbw, 48 h): 8
- Structural Aberrations Dcn (bone marrow cells; 40 mg/kgbw, 72 h): 2
- Structural Aberrations Dcn (bone marrow cells; 60 mg/kgbw, 24 h): 10
- Structural Aberrations Dcn (bone marrow cells; 60 mg/kgbw, 48 h): 7
- Structural Aberrations Dcn (bone marrow cells; 60 mg/kgbw, 72 h): 2
- Structural Aberrations Frag (bone marrow cells; 20 mg/kgbw, 24 h): 6
- Structural Aberrations Frag (bone marrow cells; 20 mg/kgbw, 48 h): 12
- Structural Aberrations Frag (bone marrow cells; 20 mg/kgbw, 72 h): 4
- Structural Aberrations Frag (bone marrow cells; 40 mg/kgbw, 24 h): 3
- Structural Aberrations Frag (bone marrow cells; 40 mg/kgbw, 48 h): 16
- Structural Aberrations Frag (bone marrow cells; 40 mg/kgbw, 72 h): 5
- Structural Aberrations Frag (bone marrow cells; 60 mg/kgbw, 24 h): 8
- Structural Aberrations Frag (bone marrow cells; 60 mg/kgbw, 48 h): 14
- Structural Aberrations Frag (bone marrow cells; 60 mg/kgbw, 72 h): 3
- Structural Aberrations Gp (bone marrow cells; 20 mg/kgbw, 24 h): 8
- Structural Aberrations Gp (bone marrow cells; 20 mg/kgbw, 48 h): 6
- Structural Aberrations Gp (bone marrow cells; 20 mg/kgbw, 72 h): 5
- Structural Aberrations Gp (bone marrow cells; 40 mg/kgbw, 24 h): 8
- Structural Aberrations Gp (bone marrow cells; 40 mg/kgbw, 48 h): 7
- Structural Aberrations Gp (bone marrow cells; 40 mg/kgbw, 72 h): 7
- Structural Aberrations Gp (bone marrow cells; 60 mg/kgbw, 24 h): 7
- Structural Aberrations Gp (bone marrow cells; 60 mg/kgbw, 48 h): 8
- Structural Aberrations Gp (bone marrow cells; 60 mg/kgbw, 72 h): 6
- Structural Aberrations Ring (bone marrow cells; 20 mg/kgbw, 24 h): 2
- Structural Aberrations Ring (bone marrow cells; 20 mg/kgbw, 48 h): 6
- Structural Aberrations Ring (bone marrow cells; 20 mg/kgbw, 72 h): 1
- Structural Aberrations Ring (bone marrow cells; 40 mg/kgbw, 24 h): 6
- Structural Aberrations Ring (bone marrow cells; 40 mg/kgbw, 48 h): 5
- Structural Aberrations Ring (bone marrow cells; 40 mg/kgbw, 72 h): 1
- Structural Aberrations Ring (bone marrow cells; 60 mg/kgbw, 24 h): 4
- Structural Aberrations Ring (bone marrow cells; 60 mg/kgbw, 48 h): 9
- Structural Aberrations Ring (bone marrow cells; 60 mg/kgbw, 72 h): 2
- MMP loss (Eosinophils; 48 h exposure period (Figure 8)): around 30%
- MMP loss (membrane potential loss) (Eosinophils; 72 h treatment): greater than 90%
- MMP loss (membrane potential loss) (Neutrophils; neutrophils, 72 h treatment): greater than 90%
- maximum MMP loss (Neutrophils; neutrophils, initial exposure time): greater than 30%
- MMP loss in neutrophils (Neutrophils; range over increased DM doses, initial exposure time): 2–40%
- MMP loss (membrane potential loss) (Platelets): greater than 90%
- Olive Tail Moment (peripheral blood cells; 20 mg/kgbw, 24 h): 5.65 ± 0.33 ***^,a
- Tail Length (µm) (peripheral blood cells; 20 mg/kgbw, 24 h): 22.44 µm and 22.44 ± 2.07 ***^,a µm
- Olive Tail Moment (peripheral blood cells; 20 mg/kgbw, 48 h): 4.01 ± 0.48 ***^,a
- Tail Length (µm) (peripheral blood cells; 20 mg/kgbw, 48 h): 19.26 ± 1.00 *^,a µm
- Olive Tail Moment (peripheral blood cells; 20 mg/kgbw, 72 h): 2.71 ± 0.31 *^,a
- Tail Length (µm) (peripheral blood cells; 20 mg/kgbw, 72 h): 16.16 ± 1.35 *^,a µm
- Tail Length (µm) (peripheral blood cells; 40 mg/kgbw, 24 h): 24.37 ± 1.66 ***^,a,b µm
- Olive Tail Moment (peripheral blood cells; 40 mg/kgbw, 48 h): 5.35 ± 0.48 ***^,a,*^,b
- Tail Length (µm) (peripheral blood cells; 40 mg/kgbw, 48 h): 25.07 ± 1.87 ***^,a,b µm
- Olive Tail Moment (peripheral blood cells; 40 mg/kgbw, 72 h): 3.13 ± 0.28 *^,a
- Tail Length (µm) (peripheral blood cells; 40 mg/kgbw, 72 h): 21.12 ± 1.45 ***^,a µm
- Tail Length (µm) (peripheral blood cells; 60 mg/kgbw, 24 h): 30.09 µm and 30.09 ± 2.86 ***^,a,b µm
- Olive Tail Moment (peripheral blood cells; 60 mg/kgbw, 48 h): 6.46 ± 0.64 ***^,a,b,c
- Tail Length (µm) (peripheral blood cells; 60 mg/kgbw, 48 h): 27.63 ± 3.12 ***^,a,c,**^,b µm
- Olive Tail Moment (peripheral blood cells; 60 mg/kgbw, 72 h): 4.84 ± 0.41 **^,a
- Tail Length (µm) (peripheral blood cells; 60 mg/kgbw, 72 h): 20.37 ± 1.59 *^,a,c µm
- increase of OTM vis-a-vis negative control (peripheral blood cells; single dose of 10 mg DM/kgbw, 24 h): ~5 fold
